Source: the NIST ThermoML archive (doi:10.1016/j.jct.2009.11.020)
Numbers after ± are expanded uncertainties.

Columns and labels:
[1] = 293.15 K; 101.33 kPa; Liquid; Vibrating tube method
[2] = refractive index (Na D-line) (dimensionless); conditions: 293.15 K; 101.33 kPa; Liquid; Standard Abbe refractometry

SMILES: OCC(O)CO [glycerol]
- mass density [1]: 1261.3 ± 0.5 kg/m3
- refractive index [2]: 1.474 ± 0.001

SMILES: CO [methanol]
- mass density [1]: 791.03 ± 0.23 kg/m3
- refractive index [2]: 1.328 ± 0.001

SMILES: O [water]
- refractive index [2]: 1.333 ± 0.001
